Reference: patent US4101662A, “Method for inhibiting emesis and compositions therefor” (priority 1973, dated 1978)
Where a name gives a salt, the structure may show the parent alone. Read-outs that look alike come from different tables or passages of the source.

System: emetic effect of apomorphine
Test: Antiemetic activity (IM) against apomorphine-induced emesis in unanesthetized dogs, ED50
Assay type: in vivo
Settings: for ED50: Canis lupus familiaris
Experimental: Description of this invention will therefore be made with especial emphasis on 4-(p-fluorobenzoyl)-1-[3-(p-fluorobenzoyl)propyl]piperidine hydrochloride, it being understood that the principles and practices involved are applicable to the other compounds of the formula first hereinabove set forth. The antiemetic activity of the compounds was determined by the following standard pharmacological tests.
The compounds were administered intramuscularly (IM) to unanesthetized dogs in the caudal muscles (left hind leg) and thirty minutes later they received apomorphine hydrochloride (0.1 mg./kg. s.c.). The compounds were administered in micrograms (mcg.) at several dose levels and the percent reduction in frequency of emesis relative to controls determined. From the data the ED50 in micrograms was determined.

[1] = IM, unanesthetized dogs, 30 minutes before apomorphine hydrochloride 0.1 mg/kg s.c., reduction in frequency of emesis relative to controls, read-out: ED50 and 95% Confidence Limits

SMILES	ED50 [1] [mg/kg]	other results
OC(CCCN1CCC(C(O)c2ccc(F)cc2)CC1)c1ccc(F)cc1 (stereo not drawn) [Example 10, 4-(p-Fluoro-α-hydroxybenzyl)-1-[3-(p-fluoro-α-hydroxy)propyl]piperidine]	–	ED50 (IM, unanesthetized dogs, 30 minutes before apomorphine hydrochloride 0.1 mg/kg s.c., footnote b: graphic estimate, vehicle 80% polyethylene glycol 300 and 20% water, read-out: ED50 (value obtained from a graphic estimate)): ~1 mg/kg
O=C(CCCN1CCC(C(=O)c2ccc(Cl)cc2)CC1)c1ccc(F)cc1 [Example 3, 4-(p-Chlorobenzoyl)-1-[3-(p-fluorobenzoyl)propyl]piperidine Hydrochloride]	0.077	–
O=C(CCCN1CCC(C(=O)c2ccc(F)cc2)CC1)c1ccc(F)cc1 [Example 1, 4-(p-Fluorobenzoyl)-1-[3-(p-fluorobenzoyl)propyl]piperidine Hydrochloride]	0.0083	–
O=C(CCCN1CCC(C(=O)c2ccc(Cl)cc2)CC1)c1ccc(Cl)cc1 [Example 4, 4-(p-chlorobenzoyl)-1-[3-(p-chlorobenzoyl)propyl]piperidine Hydrochloride]	–	ED50 and 95% Confidence Limits (Estimated Values) (IM, unanesthetized dogs, 30 minutes before apomorphine hydrochloride 0.1 mg/kg s.c., footnote a: estimated values): ~1401.0 (796-2468) mcg/kg
O=C(CCCN1CCC(C(=O)c2ccc(F)cc2)CC1)c1ccc(Cl)cc1 [Example 2, 4-(p-Fluorobenzoyl)-1-[3-(p-chlorobenzoyl)propyl]piperidine Hydrochloride]	0.06	–
O=C(CCCN1CCC(C(O)c2ccc(F)cc2)CC1)c1ccc(F)cc1 (stereo not drawn) [Example 9, 4-(p-Fluoro-α-hydroxybenzyl)-1-[3-(p-fluorobenzoyl)propyl]piperidine]	–	ED50 (im, read-out: ED50 and 95% Confidence Limits): 0.132 mg/kg
